Literature values as cited in patent US20230109016A1, “IN-VITRO DIAGNOSIS OF HISTAMINE INTOLERANCE SYNDROME” (IMMUNDIAGNOSTIK AG, priority 2020, published 2023).
Where two headings read alike, the source gives them in different places.

Tests used:
DAO in serum = molecular target: T1, DAO in serum (Homo sapiens, UniProt P19801)
T1 construct: host or cells: serum
T1 sequence (P19801 20-751): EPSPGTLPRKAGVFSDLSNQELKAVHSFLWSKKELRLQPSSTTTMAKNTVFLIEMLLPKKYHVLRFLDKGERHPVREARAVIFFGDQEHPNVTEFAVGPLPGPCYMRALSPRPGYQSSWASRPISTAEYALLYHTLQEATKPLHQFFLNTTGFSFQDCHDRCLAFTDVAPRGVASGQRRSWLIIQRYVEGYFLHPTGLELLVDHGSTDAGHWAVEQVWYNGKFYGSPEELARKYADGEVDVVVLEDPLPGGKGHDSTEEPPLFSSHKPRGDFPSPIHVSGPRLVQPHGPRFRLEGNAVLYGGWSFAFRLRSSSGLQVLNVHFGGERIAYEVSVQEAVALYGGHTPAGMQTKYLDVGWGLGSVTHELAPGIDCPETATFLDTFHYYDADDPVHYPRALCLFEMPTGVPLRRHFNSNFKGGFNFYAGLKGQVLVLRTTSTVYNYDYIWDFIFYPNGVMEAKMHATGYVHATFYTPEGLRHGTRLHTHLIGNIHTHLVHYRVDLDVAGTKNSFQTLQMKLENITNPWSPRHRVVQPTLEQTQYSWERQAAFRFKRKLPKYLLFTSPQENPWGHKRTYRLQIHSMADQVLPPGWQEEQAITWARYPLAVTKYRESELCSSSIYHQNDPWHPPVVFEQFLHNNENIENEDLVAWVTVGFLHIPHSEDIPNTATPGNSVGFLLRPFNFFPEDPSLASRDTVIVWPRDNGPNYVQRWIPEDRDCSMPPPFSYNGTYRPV

MAO = details: 14C-putrescine 1 micromole to 5 millimole
[1] = molecular target: recombinant human kidney DAO (Homo sapiens, UniProt P19801); details: read-out: Km (Michaelis constant); isolated recombinant human kidney DAO expressed in Drosophila cells (Elmore et al. 2002)
[2] = 37° C.
Human serum DAO = Human serum DAO (Homo sapiens, UniProt P19801)
DAO [3] = details: within 30 minutes of heparin administration
DAO [4] = molecular target: T2, DAO (Homo sapiens, UniProt P19801); details: presence of heparin in experiments with cell culture
T2 sequence (P19801 20-751): T1 sequence (P19801 20-751)

DAO [5] = molecular target: T2, DAO; details: 14C-putrescine 1 micromole to 5 millimole

Molecule | effect on the activity of DAO in serum (DAO in serum; stated as known) | further results
N=C(N)c1ccc(OCCCCCOc2ccc(C(=N)N)cc2)cc1 [pentamidin] | inhibited | –
O=C(O)[C@H]1/C(=C/CO)O[C@@H]2CC(=O)N21 [clavulanic acid] | inhibited | –
COc1cc2c3cc1Oc1cc(ccc1O)C[C@@H]1c4c(cc(OC)c(O)c4Oc4ccc(cc4)C[C@@H]3N(C)CC2)CC[N+]1(C)C [D-tubocurarine] | inhibited | –
C=CCc1ccccc1OCC(O)CNC(C)C (centres unmarked) [alprenolol] | inhibited | –
C#CCN(C)[C@H](C)Cc1ccccc1 [selegiline] | – | sensitivity of serum MAO (lower affinity enzyme) to inhibitor (MAO): sensitive
Cn1c(=O)c2[nH]cnc2n(C)c1=O [aminophylline] | inhibited | –
NCCc1c[nH]cn1 [histamine, 2-(4-imidazolyl)-ethylamine] | – | Km [1]: ~2.8 µM; apparent half-life in serum [2]: 0.033 to 4 h; inhibition of human serum DAO (Human serum DAO; 100 micromolar histamine in the assay): partly inhibited; inhibition of human DAO activity (Human serum DAO; histamine concentration of 500 micromoles (U.S. Pat. No. 8,003,343)): about 60%
C=CC[N@@+]12CC[C@@]34c5ccccc5N5/C=C6/[C@H]7C[C@H]8[C@@]9(CC[N@@+]8(CC=C)C/C7=C/CO)c7ccccc7N(/C=C(/[C@@H](C[C@@H]31)/C(=C\CO)C2)[C@H]54)[C@@H]69 [alcuronium] | inhibited | –
heparin | – | DAO levels in humans (DAO [3]): increase sharply; impact on the DAO level or its activity (DAO [4]): no impact
CCCNC(C)C(=O)Nc1ccccc1C (centres unmarked) [prilocaine] | inhibited | –
CC(=O)N[C@@H](CS)C(=O)O [acetylcysteine] | inhibited | –
N=C(N)NC(=O)c1nc(Cl)c(N)nc1N [amiloride] | inhibited | –
Cc1c(N(C)CS(=O)(=O)O)c(=O)n(-c2ccccc2)n1C [metamizole] | inhibited | –
CCCC(C)C1(CC)C(=O)NC(=S)NC1=O (centres unmarked) [thiopental] | – | effect on the activity of DAO in serum (DAO in serum): inhibited
N=C(N)NN [alpha-aminoguanidine] | – | sensitivity of serum DAO (high affinity enzyme) to inhibitor (DAO [5]): sensitive
CCN(CC)CCNC(=O)c1cc(Cl)c(N)cc1OC [metoclopramide] | inhibited | –

Molecule | effect on the activity of DAO in serum (DAO in serum; stated as known) | further results
CC(=O)Oc1ccccc1C(=O)O [acetylsalicylic acid] | inhibited | –
Nc1c(Br)cc(Br)cc1CN[C@H]1CC[C@H](O)CC1 [ambroxol] | inhibited | –
CC(CCc1ccc(O)cc1)NCCc1ccc(O)c(O)c1 (centres unmarked) [dobutamine] | inhibited | –
CCOC(=O)C1(c2ccccc2)CCN(C)CC1 [pethidine] | – | effect on the activity of DAO in serum (DAO in serum): inhibited
N/N=c1\[nH][nH]/c(=N\N)c2ccccc12 [dihydralazin] | inhibited | –
CN1CC[C@]23c4c5ccc(O)c4O[C@H]2[C@@H](O)C=C[C@H]3[C@H]1C5 [morphine] | – | effect on the activity of DAO in serum (DAO in serum): inhibited
O=P1(N(CCCl)CCCl)NCCCO1 (centres unmarked) [cyclophosphamide] | inhibited | –
CCN(CC)CCCC(C)Nc1ccnc2cc(Cl)ccc12 (centres unmarked) [chloroquine] | inhibited | –
NCCCCN [putrescine, 1,4-diaminobutane] | – | Km [1]: ~20 µM
CN/C(=N/CCSCc1nc[nH]c1C)NC#N [cimetidine] | inhibited | –
CC(=O)O[C@H]1C[C@@H]2CC[C@@H]3[C@H](CC[C@@]4(C)[C@H]3C[C@H]([N+]3(C)CCCCC3)[C@@H]4OC(C)=O)[C@@]2(C)C[C@@H]1[N+]1(C)CCCCC1 [pancuronium] | inhibited | –
NNC(=O)c1ccncc1 [isoniazid] | inhibited | –
CN(C)CCC=C1c2ccccc2CCc2ccccc21 [amitriptyline] | inhibited | –
CN(C)CCn1nnnc1SCC1=C(C(=O)O)N2C(=O)[C@@H](NC(=O)Cc3csc(N)n3)[C@H]2SC1 [cefotiam] | inhibited | –
CO/N=C(\C(=O)N[C@@H]1C(=O)N2C(C(=O)O)=C(COC(N)=O)CS[C@H]12)c1ccco1 [cefuroxime] | inhibited | –
